Measured values: ChEMBL document CHEMBL6083184, “Small molecule agents against alopecia: Potential targets and related pathways” (Eur J Med Chem, 2024)

Assays:
[1] = target: Mothers against decapentaplegic homolog 2 (Homo sapiens, UniProt Q15796); assay: Inhibition of SMAD2 (unknown origin)
[2] = Inhibition of MPC (unknown origin); set-up: species or system Homo sapiens

Sequence of Mothers against decapentaplegic homolog 2 (Q15796 whole entry): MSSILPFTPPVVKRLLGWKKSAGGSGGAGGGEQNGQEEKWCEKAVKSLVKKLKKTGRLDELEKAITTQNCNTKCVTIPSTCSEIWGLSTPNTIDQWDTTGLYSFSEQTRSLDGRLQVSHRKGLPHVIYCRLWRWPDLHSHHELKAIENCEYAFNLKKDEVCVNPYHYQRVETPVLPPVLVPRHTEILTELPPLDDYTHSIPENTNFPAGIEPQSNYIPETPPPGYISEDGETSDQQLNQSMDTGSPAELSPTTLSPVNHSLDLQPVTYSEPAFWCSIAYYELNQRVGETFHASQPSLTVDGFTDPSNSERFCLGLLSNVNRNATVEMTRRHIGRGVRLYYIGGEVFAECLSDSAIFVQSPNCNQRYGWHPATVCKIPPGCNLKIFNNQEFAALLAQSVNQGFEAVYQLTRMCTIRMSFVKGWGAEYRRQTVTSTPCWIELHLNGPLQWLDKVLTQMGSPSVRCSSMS

Row | SMILES | IC50 [1] | IC50 [2]
1 | Cc1csc(-c2nc[nH]c2-c2ccc3ncsc3c2)n1 | 8.7 nM | 
2 | N#C/C(=C\c1cn(-c2ccccc2)c2ccccc12)C(=O)O |  | 16.6 nM
